Experimental data as given in EP0574992A1, “5-(1,2,4-Triazol-1-ylmethyl)-3H-isobenzofuran-1-one derivatives, their preparation and use as aromatase inhibitors” (GLAXO GROUP LIMITED, priority 1992, dated 1993).

Target: T1, human placental aromatase (Homo sapiens, UniProt P11511)
T1 construct: Human placental aromatase was assayed according to the method of Thomson and Siiteri; from tissue; host or cells: human placenta
T1 sequence (P11511 1-503): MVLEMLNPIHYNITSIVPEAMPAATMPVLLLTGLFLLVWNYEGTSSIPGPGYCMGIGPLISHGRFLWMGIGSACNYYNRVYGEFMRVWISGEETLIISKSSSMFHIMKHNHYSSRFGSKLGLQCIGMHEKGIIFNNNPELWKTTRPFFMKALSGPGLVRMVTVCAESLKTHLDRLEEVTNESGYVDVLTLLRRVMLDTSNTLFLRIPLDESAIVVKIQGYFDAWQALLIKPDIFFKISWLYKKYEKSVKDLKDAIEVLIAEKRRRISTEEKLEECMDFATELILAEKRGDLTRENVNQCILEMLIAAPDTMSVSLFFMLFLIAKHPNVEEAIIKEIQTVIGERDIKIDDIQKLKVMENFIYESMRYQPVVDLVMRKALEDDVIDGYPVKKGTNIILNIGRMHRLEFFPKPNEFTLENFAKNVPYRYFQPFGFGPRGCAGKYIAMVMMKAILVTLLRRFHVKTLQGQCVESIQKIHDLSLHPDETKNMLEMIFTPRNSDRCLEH
Experiment: Human placental aromatase assay ([3H]-H2O release), in vitro
Type: biochemical
Conditions: 1 mM NADPH, read-out: Aromatase inhibitory activity - in vitro IC₅₀
Method: Aromatase inhibitory activity may be determined using human placental aromatase.
Human placental aromatase was assayed according to the method of Thomson and Siiteri, Hormone Res. (1979) 11:179-185, except that the assay buffer contained 1 mM NADPH instead of the NADPH-generating system. [³H]-H₂O, released as a by-product of aromatization, was separated from substrate using C18 mini-columns.

Row | IC50 [nM] | SMILES
1 | 63 | CC1(C)OC(=O)c2ccc(C(c3ccc([N+](=O)[O-])cc3F)n3cncn3)cc21 (stereo not shown) [Example 2, 5-[(2-Fluoro-4-nitrophenyl)-1,2,4-triazol-1-ylmethyl]-3,3-dimethyl-3H-isobenzofuran-1-one]
2 | 73 | CC1(C)OC(=O)c2ccc(C(c3ccc(C#N)cc3)n3cncn3)cc21 (racemic) [Example 7, 4-[(3,3-Dimethyl-1-oxo-1,3-dihydro-isobenzofuran-5-yl)-1,2,4-triazol-1 - ylmethyl]-benzonitrile]
3 | 24 | CC1(C)OC(=O)c2ccc(C(c3c(F)cc(C#N)cc3F)n3cncn3)cc21 (stereo not shown) [Example 3, 4-[(3.3-Dimethyl-1-oxo-1,3-dihydro-isobenzofuran-5-yl)-1,2,4-triazol-1-ylmethyl]-3,5-difluorobenzonitrile]
4 | 83 | CC1(C)OC(=O)c2ccc(C(c3ccc(C#N)cc3F)n3cncn3)cc21 (stereo not shown) [Example 6, 4-[(3,3-Dimethyl-1-oxo-1,3-dihydro-isobenzofuran-5-yl)-1,2,4-triazol-1 - ylmethyl]-3-fluorobenzonitrile]

The next lines start with the molecule.

Row | SMILES | IC50 [nM]
5 | CC1(C)OC(=O)c2ccc(C(c3c(F)cc([N+](=O)[O-])cc3F)n3cncn3)cc21 (racemic) [Example 1, 5-[(2,6-Difluoro-4-nitrophenyl)-1,2,4-triazol-1-ylmethyl]-3,3-dimethyl-3H-isobenzofuran-1-one] | 15
6 | CC1(C)OC(=O)c2ccc(C(c3ccc([N+](=O)[O-])cc3)n3cncn3)cc21 (stereo not shown) [Example 5, 5-[(4-Nitrophenyl)-1,2,4-triazol-1-ylmethyl]-3,3-dimethyl-3H-isobenzofuran-1-one] | 51

System: mouse
Experiment: Acute toxicity study, single oral doses
Type: in vivo
Conditions: single doses up to 2g/kg p.o.

Row | SMILES | Acute toxicity (tolerability)
7 | CC1(C)OC(=O)c2ccc(C(c3c(F)cc([N+](=O)[O-])cc3F)n3cncn3)cc21 (racemic) [Example 1, 5-[(2,6-Difluoro-4-nitrophenyl)-1,2,4-triazol-1-ylmethyl]-3,3-dimethyl-3H-isobenzofuran-1-one] | well tolerated
